{"source": "paper PMC4950319", "about": "“Kinetic and structural characterization of amyloid‐β peptide hydrolysis by human angiotensin‐1‐converting enzyme” (The Febs Journal, 2016)", "key": {"N‐sACE": {"biological_target": "T1, N‐sACE (Homo sapiens, UniProt P12821, H988K/H992K)", "T1 construct": "Both constructs have the complete signal, transmembrane and stalk region corresponding to full‐length sACE; made in house; host or cells: CHO cells; purified from cell lysate", "T1 sequence (P12821 30-1306 H988K/H992K)": "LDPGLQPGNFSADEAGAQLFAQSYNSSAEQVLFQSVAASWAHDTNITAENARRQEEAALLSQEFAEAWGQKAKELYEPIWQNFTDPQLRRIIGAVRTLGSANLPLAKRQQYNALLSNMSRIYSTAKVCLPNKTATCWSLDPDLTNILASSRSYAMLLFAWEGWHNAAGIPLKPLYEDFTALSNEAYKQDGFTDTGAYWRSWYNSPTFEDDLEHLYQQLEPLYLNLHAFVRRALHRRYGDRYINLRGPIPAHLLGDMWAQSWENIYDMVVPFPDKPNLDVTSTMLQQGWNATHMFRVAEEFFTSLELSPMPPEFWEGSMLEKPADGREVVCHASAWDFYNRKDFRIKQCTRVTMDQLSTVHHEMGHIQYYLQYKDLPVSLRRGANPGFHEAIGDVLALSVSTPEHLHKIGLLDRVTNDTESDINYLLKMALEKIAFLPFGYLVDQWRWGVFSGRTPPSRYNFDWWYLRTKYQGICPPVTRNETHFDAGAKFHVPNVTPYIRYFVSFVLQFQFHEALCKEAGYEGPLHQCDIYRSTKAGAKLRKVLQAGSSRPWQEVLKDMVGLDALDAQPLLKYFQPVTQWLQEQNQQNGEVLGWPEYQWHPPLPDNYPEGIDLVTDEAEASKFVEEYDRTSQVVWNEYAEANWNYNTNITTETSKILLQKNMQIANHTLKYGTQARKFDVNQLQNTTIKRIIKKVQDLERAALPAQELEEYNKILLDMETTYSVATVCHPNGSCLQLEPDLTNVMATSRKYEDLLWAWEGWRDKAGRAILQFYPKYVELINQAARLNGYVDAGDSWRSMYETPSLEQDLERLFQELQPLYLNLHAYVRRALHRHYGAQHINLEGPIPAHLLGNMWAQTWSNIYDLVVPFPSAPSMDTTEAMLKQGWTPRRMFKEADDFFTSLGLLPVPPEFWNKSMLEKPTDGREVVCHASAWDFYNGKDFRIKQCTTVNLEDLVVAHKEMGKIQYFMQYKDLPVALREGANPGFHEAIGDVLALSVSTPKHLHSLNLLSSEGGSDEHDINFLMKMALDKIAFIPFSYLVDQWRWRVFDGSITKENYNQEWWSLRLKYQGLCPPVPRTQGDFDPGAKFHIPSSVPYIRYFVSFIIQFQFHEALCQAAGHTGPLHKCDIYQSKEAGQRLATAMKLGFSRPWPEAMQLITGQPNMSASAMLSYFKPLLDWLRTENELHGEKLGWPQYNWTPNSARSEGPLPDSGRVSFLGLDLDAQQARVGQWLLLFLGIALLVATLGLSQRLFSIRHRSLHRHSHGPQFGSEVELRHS", "test": "Aβ(4–10)Y hydrolysis by N‐sACE, fluorogenic assay", "assay_type": "biochemical", "conditions": "fluorescence λex 320 nm, λem 420 nm, Hepes pH 7.5 buffer as for Aβ(4–10)Q, 5 min time point, enzyme 0.113 pmol, n = 3", "text": "(§1) Fluorogenic substrates designed around the established N‐terminal Asp7‐Ser8 cleavage site of the full‐length Aβ(1–42) were used to develop a higher throughput assay. There are two variations of the short fluorogenic peptides: Aβ(4–10)Q (Abz‐FRHDSG(Q)‐EDDnp) which has an N‐terminal Abz donor and a C‐terminal EDDnp quencher group attached to an additional Gln residue. The second peptide, Aβ(4–10)Y (Abz‐FRHDSG‐(NT)) has a different quencher molecule, NT, which substitutes for the naturally occurring Tyr residue.\n(§2) An alternative fluorogenic peptide, Abz‐FRHDSG‐(NT) (BIOPEP™ South Africa) was assayed, with 100 μL enzyme and 100 μL substrate (at a final enzyme concentration within 10% hydrolysis of total substrate; see Table 3) as above, in 96‐well plates. The samples were read at the 5 min time point on a Cary Eclipse spectrofluorimeter (Varian Inc.) at λex = 320 nm and λem = 420 nm. Kinetic constants, inner filter effect and standard curves were calculated as above.\n(§3) Statistical analysis of the data was determined by Student's t test. Differences with P < 0.05 were considered statistically significant. Fractional error was calculated for the k cat/K m ratio with the following equation: ΔZ=ZΔa/a^2+Δb/b^2 where Z represents the mean k cat/K m and ΔZ represents the fractional error. The Δa represents the SEM of the mean k cat (a). Similarly, Δb represents the SEM of the mean K m (b)."}, "CC‐sACE [1]": {"test_system": "CC‐sACE", "sequence (P12821 643-1222 limits assumed)": "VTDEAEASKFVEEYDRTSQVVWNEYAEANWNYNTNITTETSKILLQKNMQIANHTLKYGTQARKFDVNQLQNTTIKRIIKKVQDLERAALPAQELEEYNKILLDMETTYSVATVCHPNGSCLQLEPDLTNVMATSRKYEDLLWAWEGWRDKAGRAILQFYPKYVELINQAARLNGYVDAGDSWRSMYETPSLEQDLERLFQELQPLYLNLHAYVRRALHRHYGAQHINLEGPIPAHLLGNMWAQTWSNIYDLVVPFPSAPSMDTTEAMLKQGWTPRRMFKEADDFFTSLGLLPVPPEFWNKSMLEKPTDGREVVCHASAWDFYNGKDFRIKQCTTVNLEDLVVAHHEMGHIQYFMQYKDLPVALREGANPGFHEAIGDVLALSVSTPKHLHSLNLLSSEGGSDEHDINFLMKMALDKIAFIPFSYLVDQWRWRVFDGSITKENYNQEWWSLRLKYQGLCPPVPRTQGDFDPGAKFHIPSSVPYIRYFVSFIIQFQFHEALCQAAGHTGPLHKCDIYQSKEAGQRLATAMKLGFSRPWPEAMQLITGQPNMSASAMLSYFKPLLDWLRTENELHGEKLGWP", "test": "Interdomain cooperativity of two C‐domains", "assay_type": "biochemical, human", "conditions": "catalytic ability per active site versus individual domains", "protocol": "as §2"}, "C‐sACE": {"biological_target": "T2, C‐sACE (Homo sapiens, UniProt P12821, H390K/H394K)", "T2 construct": "Both constructs have the complete signal, transmembrane and stalk region corresponding to full‐length sACE; made in house; host or cells: CHO cells; purified from cell lysate", "T2 sequence (P12821 30-1306 H390K/H394K)": "as the sequence (P12821 30-1306 H988K/H992K) above, with H361K, H365K, K959H, K963H counted along it", "test": "Aβ(4–10)Y hydrolysis by C‐sACE, fluorogenic assay", "assay_type": "biochemical", "text": "as §1, §2, §3"}, "ACE variants": {"test_system": "ACE variants", "test": "Cleavage‐site analysis by MALDI‐TOF MS, kinetic assay conditions", "assay_type": "biochemical, human", "conditions": "MALDI‐TOF MS of products within kinetic assay conditions; Aβ(1–16): all ACE variants except Cdom; Aβ(4–10) peptides: Cdom and CC‐sACE not analysed", "protocol": "The mass spectrometry was analysed at the Centre for Proteomic and Genomic Research (Cape Town, South Africa). Briefly, the collected peptides were spotted onto a 10 mg·mL^−1 α‐cyano‐4‐hydroxycinnamic acid matrix (Fluka, USA) in 80% ACN, 0.2% TFA for a final concentration of 5 mg·mL^−1 matrix in 40% ACN, 0.1% TFA, 10 mM NH4H2PO4. Mass spectrometry was performed with a 4800 MALDI‐TOF/TOF (Applied Biosytems) with all spectra recorded in positive reflector mode. Spectra were generated with 400 laser shots/spectrum at a laser intensity of 3800 (arbitrary units) with a grid voltage of 16 kV."}, "sACE [2]": {"biological_target": "T3, sACE (Homo sapiens, UniProt P12821)", "T3 construct": "made in house; host or cells: CHO cells; purified from cell lysate", "T3 sequence (P12821 30-1306)": "as the sequence (P12821 30-1306 H988K/H992K) above, with K959H, K963H counted along it", "test": "Interdomain cooperativity in hydrolysis of Aβ substrates", "assay_type": "biochemical", "protocol": "Mixtures were separated on a Poroshell 120 EC‐18 column with a 2.7 μm pore size. The reaction consists of 25 μL substrate incubated with 25 μL enzyme for 15 min at 37 °C and was stopped with the addition of 10 μL of 0.25% trifluoroacetic acid (TFA). The total reaction (60 μL) was cleared of contaminants on a spin column (GHP Nanosep® MF Centrifugal Device 0.45 μm pore size) and run on the HPLC. Kinetic parameters were determined through the fitting of initial rates to the Michaelis–Menten equation with […] PRISM software (v 4.01, GraphPad Prism®).\nThe reaction was incubated for 15 min at 37 °C and stopped with the addition of 10 μL 0.25% TFA to make up a total volume of 60 μL. The reactions were performed in triplicate and 50 μL injections were analysed via HPLC (Agilent Technologies) across a gradient of 0.1% TFA and 2% ACN in water to 0.1% TFA, 95% ACN. A calibration curve was set up to convert the product peak area to picomoles product formed, through the complete hydrolysis of the substrate with the N‐domain. […] Kinetic constants were calculated using the Michaelis–Menten method using […] […]\nThe assay is a modified form of the continuous assay 7 where the assay is set up on ice in triplicate in a 96‐well plate. The baseline fluorescence was at time zero and then the substrate was incubated at 37 °C and fluorescence read at the 45 min time point on a Cary Eclipse spectrofluorimeter (Varian Inc.) at λex = 320 nm and λem = 420 nm. Again, kinetic constants were calculated using the Michaelis–Menten method with […] […] The detected fluorescence was converted to picamoles product formed through the slope of a calibration curve of Abz‐Gly. […]\nas §2"}, "[3]": {"biological_target": "T4, Ndom (soluble form of the N‐domain of sACE) (Homo sapiens, UniProt P12821)", "T4 construct": "made in house; host or cells: CHO cells", "T4 sequence (P12821 30-658)": "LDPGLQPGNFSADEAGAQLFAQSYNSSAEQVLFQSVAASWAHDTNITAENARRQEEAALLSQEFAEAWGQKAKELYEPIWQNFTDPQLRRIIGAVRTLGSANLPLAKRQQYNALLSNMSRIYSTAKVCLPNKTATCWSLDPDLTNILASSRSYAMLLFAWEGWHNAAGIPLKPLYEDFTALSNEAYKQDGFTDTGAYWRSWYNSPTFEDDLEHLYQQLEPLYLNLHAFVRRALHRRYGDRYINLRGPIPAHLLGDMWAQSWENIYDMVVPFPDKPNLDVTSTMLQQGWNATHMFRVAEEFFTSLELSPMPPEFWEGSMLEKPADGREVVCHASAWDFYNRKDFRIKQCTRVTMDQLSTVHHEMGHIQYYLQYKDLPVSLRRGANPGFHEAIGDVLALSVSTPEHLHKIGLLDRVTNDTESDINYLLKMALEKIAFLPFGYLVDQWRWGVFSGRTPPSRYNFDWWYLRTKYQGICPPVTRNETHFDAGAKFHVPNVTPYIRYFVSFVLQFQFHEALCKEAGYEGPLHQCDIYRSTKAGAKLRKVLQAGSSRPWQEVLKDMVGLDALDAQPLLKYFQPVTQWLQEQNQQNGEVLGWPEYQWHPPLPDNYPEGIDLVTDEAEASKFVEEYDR", "test": "Aβ(4–10)Y hydrolysis by Ndom, fluorogenic assay", "assay_type": "biochemical", "text": "as §1, §2, §3"}, "CC‐sACE [4]": {"test_system": "CC‐sACE", "test": "Aβ(4–10)Y hydrolysis by CC‐sACE, fluorogenic assay", "assay_type": "biochemical, human", "conditions": "fluorescence λex 320 nm, λem 420 nm, Hepes pH 7.5 buffer as for Aβ(4–10)Q, 5 min time point, enzyme 0.071 pmol, n = 3", "text": "as §1, §2, §3"}, "sACE [5]": {"biological_target": "T3, sACE", "test": "Aβ(4–10)Y hydrolysis by sACE, fluorogenic assay", "assay_type": "biochemical", "text": "as §1, §2, §3"}, "[6]": {"conditions": "mean ± fractional error of the ratio"}, "[7]": {"conditions": "fluorescence λex 320 nm, λem 420 nm, Hepes pH 7.5 buffer as for Aβ(4–10)Q, 5 min time point, enzyme 0.226 pmol, mean ± SEM, n = 3"}, "[8]": {"conditions": "fluorescence λex 320 nm, λem 420 nm, Hepes pH 7.5 buffer as for Aβ(4–10)Q, 5 min time point, enzyme 0.228 pmol, mean ± SEM, n = 3"}, "[9]": {"conditions": "fluorescence λex 320 nm, λem 420 nm, Hepes pH 7.5 buffer as for Aβ(4–10)Q, 5 min time point, enzyme 0.031 pmol, mean ± SEM, n = 3"}}, "note": "Values joined by “and” are separate entries in the source; they are usually repeats but may differ in a detail not shown here. Equal entries are not always repeated. “Also recorded” adds a separate entry of the source.", "data": [{"substance": "Abz‐FRHDSG‐(NT) [Aβ(4–10)Y, fluorogenic Aβ(4–10) peptide with NT quencher substituting for Tyr]", "values": [{"measurement": "K m", "setting": "N‐sACE; mean ± SEM", "result": "8.56 ± 0.83", "unit": "µM"}, {"measurement": "V max", "setting": "N‐sACE; mean ± SEM", "result": "0.44 ± 0.01"}, {"measurement": "k cat", "setting": "N‐sACE; mean ± SEM", "result": "3.87 ± 0.09", "unit": "s⁻¹"}, {"measurement": "k cat/K m", "setting": "N‐sACE; [6]", "result": "4.61 ± 0.46", "unit": "M^−1·s^−1 × 10^5"}, {"measurement": "cooperativity between the two C‐domains of CC‐sACE", "setting": "CC‐sACE [1]", "result": "no cooperativity; also recorded: an additive effect between the two C‐domains"}, {"measurement": "C‐sACE K m, fold larger than its active N‐domain counterpart", "setting": "C‐sACE; C‐sACE versus active N‐domain counterpart, P < 0.05", "result": 2, "unit": "fold"}, {"measurement": "K m", "setting": "C‐sACE; [7]", "result": "38.10 ± 0.10", "unit": "µM"}, {"measurement": "V max", "setting": "C‐sACE; [7]", "result": "1.57 ± 0.09"}, {"measurement": "k cat", "setting": "C‐sACE; [7]", "result": "6.95 ± 1.39", "unit": "s⁻¹"}, {"measurement": "k cat/K m", "setting": "C‐sACE; fluorescence λex 320 nm, λem 420 nm, Hepes pH 7.5 buffer as for Aβ(4–10)Q, 5 min time point, enzyme 0.226 pmol, mean ± fractional error of the ratio, n = 3", "result": "1.83 ± 0.18", "unit": "M^−1·s^−1 × 10^5"}, {"measurement": "cleavage site (bond)", "setting": "ACE variants", "result": "Asp7‐Ser8"}, {"measurement": "interdomain cooperativity, full‐length constructs", "setting": "sACE [2]; examination of the N‐sACE and C‐sACE constructs", "result": "positive domain cooperativity; also recorded: a positive form of cooperativity"}, {"measurement": "interdomain cooperativity, truncated domains taken into account", "setting": "sACE [2]; truncated domains versus sACE", "result": "a negative effect on the activity of sACE"}, {"measurement": "catalytic efficiency by Ndom relative to Aβ(1–16)", "setting": "[3]; […] 10^5 versus […] 10^5 M^−1·s^−1", "result": "half the catalytic efficiency"}, {"measurement": "K m", "setting": "[3]; [8]", "result": "21.20 ± 0.31", "unit": "µM"}, {"measurement": "V max", "setting": "[3]; [8]", "result": "4.62 ± 0.14"}, {"measurement": "k cat", "setting": "[3]; [8]", "result": "20.30 ± 0.62", "unit": "s⁻¹"}, {"measurement": "k cat/K m", "setting": "[3]; fluorescence λex 320 nm, λem 420 nm, Hepes pH 7.5 buffer as for Aβ(4–10)Q, 5 min time point, enzyme 0.228 pmol, mean ± fractional error of the ratio, n = 3", "result": "9.57 M^−1·s^−1 × 10^5 and 9.57 ± 0.33 M^−1·s^−1 × 10^5"}, {"measurement": "K m", "setting": "CC‐sACE [4]; mean ± SEM", "result": "20.30 ± 2.55", "unit": "µM"}, {"measurement": "V max", "setting": "CC‐sACE [4]; mean ± SEM", "result": "0.90 ± 0.08"}, {"measurement": "k cat", "setting": "CC‐sACE [4]; mean ± SEM", "result": "12.70 ± 1.16", "unit": "s⁻¹"}, {"measurement": "k cat/K m", "setting": "CC‐sACE [4]; [6]", "result": "6.33 ± 0.98", "unit": "M^−1·s^−1 × 10^5"}, {"measurement": "K m", "setting": "sACE [5]; [9]", "result": "12.60 ± 2.48", "unit": "µM"}, {"measurement": "V max", "setting": "sACE [5]; [9]", "result": "0.90 ± 0.18"}, {"measurement": "k cat", "setting": "sACE [5]; [9]", "result": "28.70 ± 5.81", "unit": "s⁻¹"}, {"measurement": "k cat/K m", "setting": "sACE [5]; fluorescence λex 320 nm, λem 420 nm, Hepes pH 7.5 buffer as for Aβ(4–10)Q, 5 min time point, enzyme 0.031 pmol, mean ± fractional error of the ratio, n = 3", "result": "22.67 ± 6.40", "unit": "M^−1·s^−1 × 10^5"}, {"measurement": "catalytic efficiency of sACE, fold greater than Ndom", "setting": "sACE [5]; sACE versus Ndom, P < 0.05", "result": 2, "unit": "fold"}]}]}
